Earlier results in PubChem BioAssay AID1259409 (Chemical Carcinogenesis Research Information System (CCRIS), 2018).

Test system: rodent chemically induced tumor inhibition, incidence and multiplicity
Assay: CCRIS tumor inhibitor studies
Conditions: Dose [Inhibitor]: 0

N#C[Se]Cc1ccccc1
tumour outcome (control, treated, inhibition, significance) (Carcinogen: 7,12-DIMETHYLBENZ[A]ANTHRACENE, 57-97-6, 1 PPM (AS SELENIUM) IN DIET BEGINNING 2 WK PRIOR TO CARCINOGEN DOSE AND CONTINUING FOR DURATION OF STUDY (STUDY DURAT, Route [Inhibitor]: ORAL, Species: RAT, Strain/Sex: SPRAGUE-DAWLEY/FEMALE, Target Tissue: Type of Lesion: MAMMARY GLAND: ADENOCARCINOMA, Dose [Carcinogen]: 10 MG ONCE AT 55 D OF AGE, Promoter: NONE USED): 88%, 56%, 36%, p<0.05
tumour outcome (control, treated, inhibition, significance) (Carcinogen: 7,12-DIMETHYLBENZ[A]ANTHRACENE, 57-97-6, 2 PPM (AS SELENIUM) IN DIET BEGINNING 2 WK PRIOR TO CARCINOGEN DOSE AND CONTINUING FOR DURATION OF STUDY (STUDY DURAT, Route [Inhibitor]: ORAL, Species: RAT, Strain/Sex: SPRAGUE-DAWLEY/FEMALE, Target Tissue: Type of Lesion: MAMMARY GLAND: ADENOCARCINOMA, Dose [Carcinogen]: 10 MG ONCE AT 55 D OF AGE, Promoter: NONE USED): 88%, 40%, 55%, p<0.05
tumour outcome (control, treated, inhibition, significance) (Carcinogen: 7,12-DIMETHYLBENZ[A]ANTHRACENE, 57-97-6, 3 PPM (AS SELENIUM) IN DIET BEGINNING 2 WK PRIOR TO CARCINOGEN DOSE AND CONTINUING FOR DURATION OF STUDY (STUDY DURAT, Route [Inhibitor]: ORAL, Species: RAT, Strain/Sex: SPRAGUE-DAWLEY/FEMALE, Target Tissue: Type of Lesion: MAMMARY GLAND: ADENOCARCINOMA, Dose [Carcinogen]: 10 MG ONCE AT 55 D OF AGE, Promoter: NONE USED): 88%, 40%, 55%, p<0.05
tumour outcome (control, treated, inhibition, significance) (Carcinogen: 7,12-DIMETHYLBENZ[A]ANTHRACENE, 57-97-6, 25 PPM IN DIET BEGINNING 2 WK PRIOR TO CARCINOGEN DOSE AND CONTINUING FOR 1 WK POST CARCINOGEN DOSE (STUDY DURATION:, Route [Inhibitor]: ORAL, Species: RAT, Strain/Sex: SPRAGUE-DAWLEY/FEMALE, Target Tissue: Type of Lesion: MAMMARY GLAND: TUMOR, Dose [Carcinogen]: 10 MG IN 1 ML OLIVE OIL ONCE AT 7 WK OF AGE, Promoter: NONE USED): 19/21 (91%), 13/21 (62%), 32%, p<0.05
tumour outcome (control, treated, inhibition, significance) (Carcinogen: BENZO[A]PYRENE, 50-32-8, 0.045 UMOL/G DIET BEGINNING 1 WK PRIOR TO CARCINOGEN TREATMENT AND CONTINUING FOR 1 WK POST CARCINOGEN TREATMENT FOLL, Route [Inhibitor]: ORAL, Species: MOUSE, Strain/Sex: CD-1/FEMALE, Target Tissue: Type of Lesion: FORESTOMACH: PAPILLOMA, Dose [Carcinogen]: 1 MG IN 0.2 ML CORN OIL 2/WK FOR 4 WK, Promoter: NONE USED): 85%, 79%, 7%, not significant

CC(C)=CCOc1c2occc2cc2ccc(=O)oc12
tumour outcome (control, treated, inhibition, significance) (Carcinogen: 7,12-DIMETHYLBENZ[A]ANTHRACENE, 57-97-6, 400 NMOL 1/WK FOR 45 WK APPLIED 5 MIN PRIOR TO EACH CARCINOGEN DOSE (STUDY DURATION: 45 WK), Route [Inhibitor]: DERMAL, Species: MOUSE, Strain/Sex: SENCAR, Target Tissue: Type of Lesion: SKIN: PAPILLOMA, Dose [Carcinogen]: 50 NMOL 1/WK FOR 45 WK, Promoter: NONE USED): 97%, 60%, 38%, p<0.05
tumour outcome (control, treated, inhibition, significance) (Carcinogen: 7,12-DIMETHYLBENZ[A]ANTHRACENE, 57-97-6, 400 NMOL ONCE APPLIED 5 MIN PRIOR TO CARCINOGEN DOSE (STUDY DURATION: 25 WK), Route [Inhibitor]: DERMAL, Species: MOUSE, Strain/Sex: SENCAR, Target Tissue: Type of Lesion: SKIN: PAPILLOMA, Dose [Carcinogen]: 10 NMOL ONCE, Promoter: 12-O-TETRADECANOYLPHORBOL-13-ACETATE, 16561-29-8): 93%, 93%, 0%, not significant
tumour outcome (control, treated, inhibition, significance) (Carcinogen: 7,12-DIMETHYLBENZ[A]ANTHRACENE, 57-97-6, 800 NMOL ONCE APPLIED 5 MIN PRIOR TO CARCINOGEN DOSE (STUDY DURATION: 25 WK), Route [Inhibitor]: DERMAL, Species: MOUSE, Strain/Sex: SENCAR, Target Tissue: Type of Lesion: SKIN: PAPILLOMA, Dose [Carcinogen]: 200 NMOL ONCE, Promoter: 12-O-TETRADECANOYLPHORBOL-13-ACETATE, 16561-29-8): 93%, 75%, 19%, not significant
tumour outcome (control, treated, inhibition, significance) (Carcinogen: 7-12-DIMETHYLBENZ[A]ANTHRACENE, 57-97-6, 400 NMOL 1/WK FOR 45 WK APPLIED 5 MIN PRIOR TO EACH CARCINOGEN DOSE (STUDY DURATION: 45 WK), Route [Inhibitor]: DERMAL, Species: MOUSE, Strain/Sex: SENCAR, Target Tissue: Type of Lesion: SKIN: CARCINOMA, Dose [Carcinogen]: 50 NMOL 1/WK FOR 45 WK): 90%, 53%, 41%, not calculated
tumour outcome (control, treated, inhibition, significance) (Carcinogen: 7-12-DIMETHYLBENZ[A]ANTHRACENE, 57-97-6, 800 NMOL 1/WK FOR 45 WK APPLIED 5 MIN PRIOR TO EACH CARCINOGEN DOSE (STUDY DURATION: 45 WK), Route [Inhibitor]: DERMAL, Species: MOUSE, Strain/Sex: SENCAR, Target Tissue: Type of Lesion: SKIN: CARCINOMA, Dose [Carcinogen]: 50 NMOL 1/WK FOR 45 WK): 90%, 37%, 59%, not calculated
tumour outcome (control, treated, inhibition, significance) (Carcinogen: 7-12-DIMETHYLBENZ[A]ANTHRACENE, 57-97-6, 800 NMOL 1/WK FOR 45 WK APPLIED 5 MIN PRIOR TO EACH CARCINOGEN DOSE (STUDY DURATION: 45 WK), Route [Inhibitor]: DERMAL, Species: MOUSE, Strain/Sex: SENCAR, Target Tissue: Type of Lesion: SKIN: PAPILLOMA, Dose [Carcinogen]: 50 NMOL 1/WK FOR 45 WK): 97%, 53%, 45%, p<0.05
tumour outcome (control, treated, inhibition, significance) (Carcinogen: BENZO[A]PYRENE, 50-32-8, 800 NMOL ONCE APPLIED 5 MIN PRIOR TO CARCINOGEN DOSE (STUDY DURATION: 25 WK), Route [Inhibitor]: DERMAL, Species: MOUSE, Strain/Sex: SENCAR, Target Tissue: Type of Lesion: SKIN: PAPILLOMA, Dose [Carcinogen]: 200 NMOL ONCE, Promoter: 12-O-TETRADECANOYLPHORBOL-13-ACETATE, 16561-29-8): 92%, 92%, 0%, not significant
tumour outcome (control, treated, inhibition, significance) (Carcinogen: BENZO[A]PYRENE, 50-32-8, 1600 NMOL ONCE APPLIED 5 MIN PRIOR TO CARCINOGEN DOSE (STUDY DURATION: 25 WK), Route [Inhibitor]: DERMAL, Species: MOUSE, Strain/Sex: SENCAR, Target Tissue: Type of Lesion: SKIN: PAPILLOMA, Dose [Carcinogen]: 200 NMOL ONCE, Promoter: 12-O-TETRADECANOYLPHORBOL-13-ACETATE, 16561-29-8): 92%, 85%, 8%, not significant

CCN(CC)C(=S)S
outcome (Carcinogen: DIETHYLNITROSAMINE, 55-18-5, 50 MG/KG 1/WK FOR 5 WK ADMINISTERED 4 HR POST EACH CARCINOGEN DOSE (STUDY DURATION: 6 MO), Route [Inhibitor]: INTRAPERITONEAL, Species: RAT, Strain/Sex: BD6/FEMALE, Target Tissue: Type of Lesion: ESOPHAGUS: TUMOR, Dose [Carcinogen]: 80 MG/KG BW 1/WK FOR 5 WK, Promoter: NONE USED): 6%, 77, -1183%, p<0.001
tumour outcome (control, treated, inhibition, significance) (Carcinogen: DIETHYLNITROSAMINE, 55-18-5, 50 MG/KG 1/WK FOR 5 WK ADMINISTERED 4 HR POST EACH CARCINOGEN DOSE (STUDY DURATION: 6 MO), Route [Inhibitor]: INTRAPERITONEAL, Species: RAT, Strain/Sex: BD6/FEMALE, Target Tissue: Type of Lesion: LIVER: TUMOR, Dose [Carcinogen]: 80 MG/KG BW 1/WK FOR 5 WK, Promoter: NONE USED): 44%, 77%, -75%, not significant
tumour outcome (control, treated, inhibition, significance) (Carcinogen: DIETHYLNITROSAMINE, 55-18-5, 50 MG/KG 1/WK FOR 5 WK ADMINISTERED 4 HR POST EACH CARCINOGEN TREATMENT (STUDY DURATION: 6 MO), Route [Inhibitor]: INTRAPERITONEAL, Species: RAT, Strain/Sex: BD6/FEMALE, Target Tissue: Type of Lesion: ESOPHAGUS: TUMOR, Dose [Carcinogen]: 80 MG/KG BW 1/WK FOR 5 WK, Promoter: NONE USED): 14%, 94%, -571%, p<0.001
tumour outcome (control, treated, inhibition, significance) (Carcinogen: DIETHYLNITROSAMINE, 55-18-5, 50 MG/KG 1/WK FOR 5 WK ADMINISTERED 4 HR POST EACH CARCINOGEN TREATMENT (STUDY DURATION: 6 MO), Route [Inhibitor]: INTRAPERITONEAL, Species: RAT, Strain/Sex: BD6/FEMALE, Target Tissue: Type of Lesion: LIVER: TUMOR, Dose [Carcinogen]: 80 MG/KG BW 1/WK FOR 5 WK, Promoter: NONE USED): 52%, 44%, 15%, not significant
tumour outcome (control, treated, inhibition, significance) (Carcinogen: DIETHYLNITROSAMINE, 55-18-5, 50 MG/KG 1/WK FOR 5 WK ADMINISTERED 24 HR POST EACH CARCINOGEN TREATMENT (STUDY DURATION: 6 MO), Route [Inhibitor]: INTRAPERITONEAL, Species: RAT, Strain/Sex: BD6/FEMALE, Target Tissue: Type of Lesion: LIVER: TUMOR, Dose [Carcinogen]: 80 MG/KG BW 1/WK FOR 5 WK, Promoter: NONE USED): 52%, 32%, 38%, not significant
tumour outcome (control, treated, inhibition, significance) (Carcinogen: DIETHYLNITROSAMINE, 55-18-5, 50 MG/KG 1/WK FOR 5 WK ADMINISTERED 24 HR POST EACH CARCINOGEN TREATMENT(STUDY DURATION: 6 MO), Route [Inhibitor]: INTRAPERITONEAL, Species: RAT, Strain/Sex: BD6/FEMALE, Target Tissue: Type of Lesion: ESOPHAGUS: TUMOR, Dose [Carcinogen]: 80 MG/KG BW 1/WK FOR 5 WK, Promoter: NONE USED): 14%, 4%, 71%, not significant
